Patent US20030092760A1, “Therapeutic agent for renal failure” (Toray Industries, Inc., priority 2001, published 2003)

Experiments:
[1] = test system: renal failure rat models of which the primary disease is glomerulonephritis; experiment: Renal failure rat models of which the primary disease is glomerulonephritis, subcutaneous osmotic pump; type: in vivo, WKY rats
Text: Renal failure rat models of which the primary disease was glomerulonephritis were used to examine the effect of different 4,8-inter-m-phenylene prostaglandin I2 derivatives including beraprost sodium on the models. […] Two weeks after the induction, blood was collected from each rat through the tail vein to determine blood creatinine and BUN levels. […] Four types of 4,8-inter-m-phenylene prostaglandin I2 derivatives in total, including beraprost sodium, were individually administered subcutaneously to the rats from the back continuously with an osmotic pump (ALZET) for one week, beginning two weeks after induction of glomerulonephritis and continued through three weeks after the induction. The renal functions (i.e., blood creatinine and BUN levels) were determined one week after the initial administration of a drug.

[2] = test system: ⅚ nephrectomized rat model; experiment: Effect on ⅚ nephrectomized rat model: renal functions; type: in vivo, Wistar rats
Method: The effect of beraprost sodium on a ⅚ nephrectomized rat model, which has been widely used as a model animal for renal failure, was examined. Two-thirds of the left kidney was removed from each of 4-week-old male Wistar rats (Charles River Japan Inc.) with a razor, and all of the right kidney was then removed therefrom one week after. Three weeks after the initial surgery, blood was collected from each rat through the tail vein and serum creatinine and BUN levels were determined from the blood. At this point of time, the urine was also collected for 24 hours to determine the mass of proteins in the urine. The rats were allocated to one of the treatment groups by the stratifying continuous randomization method based on the mass of proteins in the urine and the body weight (n=8 per group). […] Three weeks after the initial surgery, beraprost sodium or captopril (SIGMA, i.e., a positive control) was orally administered to each rat twice a day everyday, beginning the day on which administration of a drug was started and continued through five weeks after the administration. The determination of the renal functions was performed both three weeks and five weeks after the initial administration of a drug. The photographic images of the renal tissue were observed only five weeks after the initial administration.

[3] = test system: glomerulonephritis model rats in inflammatory stage; experiment: Glomerulonephritis model rats, inflammatory stage, oral administration
Method: (§1) Eight-week-old male WKY rats (Charles River Japan Inc.) were administered intravenously with rabbit anti-rat glomerular basement membrane antiserum to induce glomerulonephritis. […] The frequency of the administration was twice a day for beraprost sodium and captopril and once a day for prednisolone. After the initial administration of a drug, urinary total protein excretion (which is a measure of renal functions) was determined.

[4] = test system: glomerulonephritis model rats in renal failure stage; experiment: Glomerulonephritis model rats, renal failure stage, oral administration
Method: as §1

[5] = test system: ⅚ nephrectomized rat model; experiment: ⅚ nephrectomized rat model: observation of renal tissue images (histopathological change); type: in vivo, Wistar rats; details: for Framework: Infiltration of mononuclear cells / Renal corpuscle: Cellular filling in glomerulus / Renal corpuscle: Coagulation of glomeruli in Bowman's capsule / Renal corpuscle: Deposition of PAS + materials in Bowman's capsule / Renal corpuscle: Epidermal growth in Bowman's capsule / Renal corpuscle: Glomerular hypertrophy / Renal corpuscle: Glomerulosclerosis / Uriniferous tuble: Basophilic degeneration of tubules / Uriniferous tuble: Proliferation of proximal tubules / Uriniferous tuble: Proteinaceous urinary casts / Uriniferous tuble: Tubular dilation: number of animals with change in 8 animals per group, five weeks after initial administration
Method: The effect of beraprost sodium on a ⅚ nephrectomized rat model, which has been widely used as a model animal for renal failure, was examined. Two-thirds of the left kidney was removed from each of 4-week-old male Wistar rats (Charles River Japan Inc.) with a razor, and all of the right kidney was then removed therefrom one week after. Three weeks after the initial surgery, blood was collected from each rat through the tail vein and serum creatinine and BUN levels were determined from the blood. At this point of time, the urine was also collected for 24 hours to determine the mass of proteins in the urine. The rats were allocated to one of the treatment groups by the stratifying continuous randomization method based on the mass of proteins in the urine and the body weight (n=8 per group). There was observed little difference in the initial values of blood creatinine and BUN values among the rats. Three weeks after the initial surgery, beraprost sodium or captopril (SIGMA, i.e., a positive control) was orally administered to each rat twice a day everyday, beginning the day on which administration of a drug was started and continued through five weeks after the administration. The determination of the renal functions was performed both three weeks and five weeks after the initial administration of a drug. The photographic images of the renal tissue were observed only five weeks after the initial administration. […] Five weeks after the initial administration, more exacerbation of chronic renal failure was observed. […] The same tendency was shown five weeks after the initial administration (Table 2).

[6] = 60 μg/kg group, 2 weeks after induction (before administration)
[7] = 60 μg/kg s.c. osmotic pump, 3 weeks after induction (1 week after the initial administration)
[8] = 200 μg/kg group, 2 weeks after induction (before administration)
[9] = 200 μg/kg s.c. osmotic pump, 3 weeks after induction (1 week after the initial administration)
[10] = 100 μg/kg oral twice a day, five weeks after the administration of a drug
[11] = 100 μg/kg oral twice a day, three weeks after the administration of a drug
[12] = 300 μg/kg oral twice a day, five weeks after the administration of a drug
[13] = 300 μg/kg oral twice a day, three weeks after the administration of a drug

## CC#CCC(C)[C@H](O)/C=C/C1[C@H](O)C[C@@H]2Oc3c(CCCC(=O)[O-])cccc3[C@H]12.[Na+] (mixture of isomers) [Beraprost sodium, beraprost sodium]
[1]; [6]
  BUN: 28 ± 3 mg/dL
  Blood creatinine: 0.61 ± 0.07 mg/dL
[1]; [7]
  BUN: 31 ± 2 mg/dL
  Blood creatinine: 0.48 ± 0.04 mg/dL
[1]; [8]
  BUN: 30 ± 3 mg/dL
  Blood creatinine: 0.62 ± 0.06 mg/dL
[1]; [9]
  BUN: 25 ± 1 mg/dL
  Blood creatinine: 0.49 ± 0.04 mg/dL
[1]; three weeks after the induction of glomerulonephritis
  Blood creatinine and BUN levels compared with the control group (in words): significantly decreased
[2]; [10]
  Blood urea nitrogen: 45.5 ± 3.3 mg/dL
  Creatinine clearance: 156.9 ± 19.5 μl/min/100 gBW
  Urinary protein excretion: 276.5 ± 69.2 mg/24 hr/kgBW
  Urinary volume: 21.7 ± 3.1 ml/24 hr
[2]; [11]
  Blood urea nitrogen: 55.9 ± 3.7 mg/dL
  Creatinine clearance: 134.1 ± 11.0 μl/min/100 gBW
  Urinary protein excretion: 125.3 ± 20.8 mg/24 hr/kgBW
  Urinary volume: 20.1 ± 2.8 ml/24 hr
[2]; [12]
  Blood urea nitrogen: 45.1 ± 3.5 mg/dL
  Creatinine clearance: 143.5 ± 10.0 μl/min/100 gBW
  Urinary protein excretion: 197.1 ± 21.1 mg/24 hr/kgBW
  Urinary volume: 20.4 ± 1.7 ml/24 hr
[2]; [13]
  Blood urea nitrogen: 50.9 ± 3.6 mg/dL
  Creatinine clearance: 136.4 ± 9.9 μl/min/100 gBW
  Urinary protein excretion: 154.4 ± 53.0 mg/24 hr/kgBW
  Urinary volume: 20.4 ± 3.7 ml/24 hr
[2]; three weeks after the initial administration, same tendency five weeks after
  Effect on urinary protein level, creatinine clearance and BUN level (in words): significant prevention of increase in the urinary protein level and prevention of reduction in the creatinine clearance and increase in the BUN level
[3]; 300 μg/kg oral twice a day, 7 days after induction (1 week after initial administration)
  Urinary total protein excretion: 17 ± 7 mg/24 hr
[3]; day 1 through day 7 after induction
  Increase in urinal total protein excretion (in words): markedly prevented
[4]; 300 μg/kg group, renal failure stage Exp. 1, 2 weeks after induction (before administration)
  Urinary total protein excretion: 374 ± 21 mg/24 hr
[4]; 300 μg/kg group, renal failure stage Exp. 2, 2 weeks after induction (before administration)
  Urinary total protein excretion: 321 ± 23 mg/24 hr
[4]; 300 μg/kg oral twice a day, renal failure stage Exp. 1, 3 weeks after induction (1 week after initial administration)
  Urinary total protein excretion: 300 ± 51 mg/24 hr
[4]; 300 μg/kg oral twice a day, renal failure stage Exp. 2, 4 weeks after induction (2 week after initial administration)
  Urinary total protein excretion: 295 ± 46 mg/24 hr
[4]; renal failure stage, two weeks through four weeks after induction
  Increase in urinal total protein excretion (in words): markedly prevented
[5]; 100 μg/kg
  Framework: Infiltration of mononuclear cells: 7
  Renal corpuscle: Cellular filling in glomerulus: 7
  Renal corpuscle: Coagulation of glomeruli in Bowman's capsule: 2
  Renal corpuscle: Deposition of PAS + materials in Bowman's capsule: 2
  Renal corpuscle: Epidermal growth in Bowman's capsule: 1
  Renal corpuscle: Glomerular hypertrophy: 3
  Renal corpuscle: Glomerulosclerosis: 2
  Uriniferous tuble: Basophilic degeneration of tubules: 8
  Uriniferous tuble: Proliferation of proximal tubules: 8
  Uriniferous tuble: Proteinaceous urinary casts: 5
  Uriniferous tuble: Tubular dilation: 8
[5]; 300 μg/kg
  Framework: Infiltration of mononuclear cells: 7
  Renal corpuscle: Cellular filling in glomerulus: 4
  Renal corpuscle: Coagulation of glomeruli in Bowman's capsule: 1
  Renal corpuscle: Deposition of PAS + materials in Bowman's capsule: 1
  Renal corpuscle: Epidermal growth in Bowman's capsule: 1
  Renal corpuscle: Glomerular hypertrophy: 2
  Renal corpuscle: Glomerulosclerosis: 1
  Uriniferous tuble: Basophilic degeneration of tubules: 8
  Uriniferous tuble: Proliferation of proximal tubules: 8
  Uriniferous tuble: Proteinaceous urinary casts: 2
  Uriniferous tuble: Tubular dilation: 8
[5]; five weeks after the initial administration
  Progress of the glomerular conditions (renal tissue images, in words): markedly prevented
